Assay [1] relates to proto type galectin from domestic cow (Bos taurus). The conditions noted are these: relative to Galβ1,4Glc = 1.0; comparison values, reference not given; cited from earlier work.
For assay [2], the system named is Msgal1-L1. Briefly: Solid-phase binding-inhibition assay: rMsgal1-L1-HRP binding to asialofetuin (ASF) inhibited by carbohydrates. On the set-up: species or system Morone saxatilis. The conditions noted are these: for Relative inhibitory activity, Morone saxatilis: I50 normalized to Galβ1,4Glc (lactose) = 1.0, rMsgal1-L1-HRP binding to ASF, pH 8.0, 23°C, 10 mM ME. The procedure:
Binding of the rMsgal1-L1–HRP to asialofetuin (ASF) and its inhibition by carbohydrates were assessed and optimized as reported elsewhere ([Ahmed et al., 1996], [2002]). […] Thus, the inhibition of galectin binding to immobilized ASF by mono- and oligosaccharides is a standard system to analyze the fine specificity of novel galectins. Briefly, ASF (0.5 μg/100 μl/well) in 0.1 M Na2CO3/0.02% NaN3 (pH 9.6) was adsorbed onto the plastic wells (37°C, 3 h) and the bound glycoprotein was fixed with 2% formaldehyde (37°C, 30 min). The plates were washed three times with PBS (azide-free)/0.05% Tween 20, and incubated with the Msgal1-L1–HRP conjugate (10 ng/100 μl/well for binding assays) or with a pre-incubated mixture of equal volume of conjugate and varying concentrations of test ligands (for binding-inhibition assays). After incubation (4°C, 1 h) the plates were washed with ice-cold azide-free PBS-Tween 20 buffer and the bound peroxidase activity was assayed with 2,2’-azino-bis(3-ethylbenzothiazoline-6-sulfonic acid) (ABTS) as previously described ([Ahmed et al., 1996]).
The carbohydrate-binding specificity of Msgal1-L1 was determined by analyzing the binding of the rMsgal1-L1–HRP conjugate to ASF in the presence of several saccharides in a solid-phase assay under the optimal conditions of pH and temperature established above (pH 8.0; 23°C) and under a reducing environment (10 mM ME) ([Ahmed et al., 1996], [2002]). For each test saccharide, a complete inhibition curve was obtained, and the molar concentrations that inhibited the binding of the lectin conjugate to ASF by 50% (I 50) were calculated and normalized with respect to Galβ1,4Glc (lactose), which was included in each plate as a standard ( Table 2 ). The binding-inhibition profile for Msgal1-L1 was generally similar to those for proto type galectins from zebrafish (D. rerio), toad (B. arenarum), and domestic cow (Bos taurus). […] The presence of a fucose unit linked in α1,2 to the non-reducing Gal moiety decreased the inhibitory effectiveness in about one-third as compared to lactose, most likely by steric hindrance of the protein–Gal interaction. […] A hydrophobic phenyl group linked to the reducing end of Galβ1,3GlcNAc strengthened the Msgal1-L1 interaction with the ligand 6.5-fold.

Assay [3] has as its system proto type galectin from zebrafish (Danio rerio). The conditions noted are these: relative to Galβ1,4Glc = 1.0; comparison values, reference not given; cited from earlier work.
The test system of assay [4] is proto type galectin from toad (Bufo arenarum). The conditions noted are these: relative to Galβ1,4Glc = 1.0; comparison values, reference not given; cited from earlier work.

Take `CO[C@@H]1O[C@H](CO)[C@H](O)[C@H](O)[C@H]1O` [Galβ-OMe]: in assay [1], the “Relative inhibitory activity, Bos taurus” value is recorded as 0.0044. The “Relative inhibitory activity, Morone saxatilis” value in assay [2] came out at 0.009. Besides, the “Relative inhibitory activity, Danio rerio” value in assay [3] is given as 0.004. Also, in assay [4], the “Relative inhibitory activity, Bufo arenarum” value was 0.006.
As for `CC(=O)N[C@H]1[C@H](O[C@H]2[C@H](O)[C@@H](CO)OC(O)[C@@H]2O)O[C@H](CO)[C@H](O)[C@@H]1O` (some centres unmarked) [GalNacβ1,3Glc], in assay [2], the “Relative inhibitory activity, Morone saxatilis” value turned out to be 2.8. The “Relative inhibitory activity, Bufo arenarum” value in assay [4] is reported as 4.45.
Consider `CO[C@H]1[C@H](O[C@H]2[C@H](O)[C@@H](O)C(O)O[C@@H]2CO)O[C@H](CO)[C@H](O)[C@@H]1O` (some centres unmarked) [MeO-2Galβ1,4Glc], for which the “Relative inhibitory activity, Bos taurus” value in assay [1] is 4.08. Also, in assay [2], the “Relative inhibitory activity, Morone saxatilis” value is recorded as 3.33. In addition, the “Relative inhibitory activity, Danio rerio” value in assay [3] is reported as 2.9. Also, in assay [4], the “Relative inhibitory activity, Bufo arenarum” value is 2.5.
Regarding `CC(=O)N[C@H]1[C@@H](O[C@H]2[C@@H](O)[C@@H](CO)O[C@@H](O)[C@@H]2O[C@@H]2O[C@@H](C)[C@@H](O)[C@@H](O)[C@@H]2O)O[C@H](CO)[C@H](O)[C@@H]1O` [A-trisaccharide], in assay [2] (Msgal1-L1 binding to ASF), the “Fold less effective than lactose as inhibitor” value was “threefold less effective”.
For `O=C[C@H](O)[C@@H](O)[C@@H](O)[C@H](O)CO` [Gal, D-galactose], the “Relative inhibitory activity, Bos taurus” value in assay [1] is 0.0079. Further, the “Relative inhibitory activity, Morone saxatilis” value in assay [2] was found to be 0.007. Also, the “Relative inhibitory activity, Danio rerio” value in assay [3] was 0.004. In addition, the “Relative inhibitory activity, Bufo arenarum” value in assay [4] is recorded as 0.005.
Consider `CC(=O)N[C@H]1[C@H](Oc2ccc([N+](=O)[O-])cc2)O[C@H](CO)[C@@H](O)[C@@H]1O[C@@H]1O[C@H](CO)[C@H](O)[C@H](O)[C@H]1O` [Galβ1-3GlcNacβ-OPhNO2 (p)], for which the “Relative inhibitory activity, Bos taurus” value in assay [1] was 4.5. Also, the “Relative inhibitory activity, Morone saxatilis” value in assay [2] is on record as 6.5. The “Relative inhibitory activity, Danio rerio” value in assay [3] is reported as 2.3. The “Relative inhibitory activity, Bufo arenarum” value in assay [4] is 1.78.
For `OC[C@H]1O[C@H](OCC2O[C@@H](O)[C@H](O)[C@@H](O)[C@@H]2O)[C@H](O)[C@@H](O)[C@H]1O` (some centres unmarked) [Galα1,6Glc], the “Relative inhibitory activity, Bos taurus” value in assay [1] is on record as 0.0053. The “Relative inhibitory activity, Morone saxatilis” value in assay [2] stood at 0.019. Moreover, the “Relative inhibitory activity, Danio rerio” value in assay [3] is 0.004. Further, in assay [4], the “Relative inhibitory activity, Bufo arenarum” value is on record as 0.0075.
Consider `OC[C@H]1O[C@@H](O[C@H]2[C@H](O)[C@H](O)C(O)O[C@@H]2CO)[C@H](O)[C@@H](O)[C@H]1O` (some centres unmarked) [Galβ1,4Man], for which the “Relative inhibitory activity, Bos taurus” value in assay [1] is recorded as 2.34. Further, the “Relative inhibitory activity, Morone saxatilis” value in assay [2] amounted to 1.74. In addition, in assay [3], the “Relative inhibitory activity, Danio rerio” value is 1.5. For the same molecule, the “Relative inhibitory activity, Bufo arenarum” value in assay [4] is listed as 2.5.
For Galβ1,6GlcNAc, the “Relative inhibitory activity, Bos taurus” value in assay [1] is on record as 0.12. For the same molecule, the “Relative inhibitory activity, Morone saxatilis” value in assay [2] stood at 0.225. The “Relative inhibitory activity, Danio rerio” value in assay [3] is reported as 0.03. Further, the “Relative inhibitory activity, Bufo arenarum” value in assay [4] is reported as 0.83.
For the molecule `OC[C@H]1O[C@@H](O[C@H]2[C@@H](O)COC(O)[C@@H]2O)[C@H](O)[C@@H](O)[C@H]1O` (some centres unmarked) [Galβ1,3Ara], the “Relative inhibitory activity, Bos taurus” value in assay [1] was 2.56. In addition, the “Relative inhibitory activity, Morone saxatilis” value in assay [2] was 4.10. In addition, the “Relative inhibitory activity, Danio rerio” value in assay [3] was 2.1. The “Relative inhibitory activity, Bufo arenarum” value in assay [4] is on record as 1.28.
Consider `Nc1ccc(O[C@@H]2O[C@H](CO)[C@@H](O[C@@H]3O[C@H](CO)[C@H](O)[C@H](O)[C@H]3O)[C@H](O)[C@H]2O)cc1` [Galβ1,4Glcβ-OPhNH2 (p)], for which, in assay [1], the “Relative inhibitory activity, Bos taurus” value is on record as 1.48. In addition, in assay [2], the “Relative inhibitory activity, Morone saxatilis” value was determined as 2. Further, the “Relative inhibitory activity, Danio rerio” value in assay [3] was 1.4. Also, in assay [4], the “Relative inhibitory activity, Bufo arenarum” value is reported as 1.71.
With `CC(=O)N[C@H]1C(O)O[C@H](CO)[C@H](O)[C@@H]1OC1O[C@H](CO)[C@H](O)[C@H](O)[C@H]1O` (some centres unmarked) [Gal1,3GalNAc], in assay [2] (Msgal1-L1 binding inhibition), the “Inhibitory effect (in words)” value is given as “negligible”.
Consider `OC[C@H]1O[C@@H](S[C@@H]2O[C@H](CO)[C@H](O)[C@H](O)[C@H]2O)[C@H](O)[C@@H](O)[C@H]1O` [Galβ1S1βGal, Thiodigalactoside], for which, in assay [1], the “Relative inhibitory activity, Bos taurus” value is 9.0. Moreover, the “Relative inhibitory activity, Morone saxatilis” value in assay [2] is on record as 10.0; in assay [2] (listed as Thiodigalactoside), “approximately 10”. Besides, the “Relative inhibitory activity, Danio rerio” value in assay [3] is reported as 12.2. For the same molecule, the “Relative inhibitory activity, Bufo arenarum” value in assay [4] is on record as 3.9.
On to `CO[C@H]1O[C@H](CO)[C@H](O)[C@H](O)[C@H]1O` [Galα-OMe], for which the “Relative inhibitory activity, Bos taurus” value in assay [1] is given as 0.01. In addition, the “Relative inhibitory activity, Morone saxatilis” value in assay [2] is 0.027. Besides, in assay [3], the “Relative inhibitory activity, Danio rerio” value was 0.006. The “Relative inhibitory activity, Bufo arenarum” value in assay [4] was 0.03.
Regarding `CO[C@@H]1O[C@H](CO)[C@@H](O[C@@H]2O[C@H](CO)[C@H](O)[C@H](O)[C@H]2O)[C@H](O)[C@H]1O` [Galβ1,4Glcβ(1-0)Me], the “Relative inhibitory activity, Bos taurus” value in assay [1] is recorded as 1.33. Also, the “Relative inhibitory activity, Morone saxatilis” value in assay [2] is reported as 1.74. For the same molecule, in assay [3], the “Relative inhibitory activity, Danio rerio” value is 2.9. Besides, the “Relative inhibitory activity, Bufo arenarum” value in assay [4] is 2.14.
As for `OC[C@H]1O[C@@H](O[C@@H]2[C@@H](CO)O[C@](O)(CO)[C@H]2O)[C@H](O)[C@@H](O)[C@H]1O` [Galβ1,4Fru f], the “Relative inhibitory activity, Morone saxatilis” value in assay [2] is 1.9. Moreover, the “Relative inhibitory activity, Danio rerio” value in assay [3] is reported as 1.0. The “Relative inhibitory activity, Bufo arenarum” value in assay [4] was 1.0.
As to `CC(=O)N[C@H]1C(O)O[C@H](CO)[C@@H](O[C@@H]2O[C@H](CO)[C@H](O)[C@H](O)[C@H]2O)[C@@H]1O` (some centres unmarked) [Galβ1,4GlcNac, N-acetyllactosamine], the “Relative inhibitory activity, Bos taurus” value in assay [1] is recorded as 5.54. In addition, the “Relative inhibitory activity, Morone saxatilis” value in assay [2] is on record as 3.07; in assay [2] (listed as Galβ1,4GlcNAc), “approximately 3”. Besides, the “Relative inhibitory activity, Danio rerio” value in assay [3] is on record as 7.9. Also, the “Relative inhibitory activity, Bufo arenarum” value in assay [4] is reported as 3.75.
Consider Fucα1,2Galβ1,4Glc, for which the “Relative inhibitory activity, Bos taurus” value in assay [1] is 0.36. In assay [2], the “Relative inhibitory activity, Morone saxatilis” value amounted to 0.33. The “Relative inhibitory activity, Danio rerio” value in assay [3] is reported as 0.35. Further, the “Relative inhibitory activity, Bufo arenarum” value in assay [4] is 0.17.

(Values after paper PMC12116657, “A “proto” type galectin expressed in striped bass (Morone saxatilis) tissues is released to epidermal mucus and binds to bacterial and mucus glycans” (Frontiers in Cellular and Infection Microbiology, 2025).)
